Experimental data published in BindingDB's records for doi:10.1021/cb700025j (Burnham Institute for Medical Research, 2007).

Experiments:
[1] = target: T1, Mitogen-activated protein kinase 14 (Homo sapiens, UniProt Q16539); assay: Fluorescence-Based Competition Assay; conditions: pH 7
From the text: The competitive binding between test compounds and a fluorescence p38 alpha inhibitor, SK&F 86002.

[2] = target: T1, Mitogen-activated protein kinase 14; assay: Kinase Activity Assay; conditions: pH 7
Method: In vitro kinase activity and selectivity was determined by using SelectScreen kinase profiling Z'-LYTE assay from Invitrogen.

T1 sequence (Q16539 whole entry): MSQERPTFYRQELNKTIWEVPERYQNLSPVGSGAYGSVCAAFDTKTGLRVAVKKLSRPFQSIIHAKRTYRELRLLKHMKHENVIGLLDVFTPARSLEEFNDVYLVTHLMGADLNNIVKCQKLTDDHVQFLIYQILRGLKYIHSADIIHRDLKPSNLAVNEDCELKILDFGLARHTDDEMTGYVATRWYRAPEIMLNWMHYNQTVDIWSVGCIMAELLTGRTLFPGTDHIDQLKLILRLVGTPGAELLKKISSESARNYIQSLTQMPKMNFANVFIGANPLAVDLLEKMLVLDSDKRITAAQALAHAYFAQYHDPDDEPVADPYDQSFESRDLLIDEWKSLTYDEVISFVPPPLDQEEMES

IC50 [1]: 5610 nM
IC50 [2]: 710 nM
Kd [2]: 760 nM
SMILES: C=C1SN(C)c2ccc(S(=O)(=O)Nc3ccccc3N3CCCCC3)cc21 [BI-12H11]
